Experimental data published in patent publication US20050090471A1, “Inhibitors of cyclin-dependent kinases, compositions and uses related thereto” (GPC Biotech, Inc, priority 2001, published 2005).

Assays:
[1] = system: NCI panel of 60 cell lines; experiment: NCI panel of human tumor cell lines (SRB assay), MG-MID; assay type: cell-based; conditions: 48 hours incubation with compound
Source text: The evaluation of compounds at the National Cancer Institute in their panel of 60 cell lines provides a wealth of information regarding efficacy in a wide range of tumor types and genetic backgrounds. Included within this panel are cell lines derived from leukemia, melanoma and cancers of the lung, colon, brain, ovary, breast, prostate and kidney. Use of this panel provides a measure of the efficacy of compounds in cells with alterations in many genes that are associated with neoplastic transformation including p53 and Her2/Neu as well as those involved in metabolism and those which confer multi-drug resistance. The data generated in these cell lines with the protocol described below can be used to evaluate the activity of compounds.
Cells were grown in RPMI-1640 10% FCS and plated in 96 well micro-titer plates at densities ranging from 5,000 to 40,000 cells/well. The plates were incubated for 24 hours at 37° C., 5% CO2 for 24 hours. Media containing twice the desired final concentration of the compound (5 doses spanning 4 logs) was prepared and 100 μl was added to each well containing 100 μl media plus cells to yield the desired final concentration. The plates were then incubated for an additional 48 hours.
The effect of the compound on cellular viability was determined with the Sulforhodamine B (SRB) assay which measures total protein. Cells were fixed with cold TCA to a fmal concentration of 10% and incubated at 4° C. for 60 minutes. The supernatant was discarded and the plates were washed five times with water and air-dried. SRB solution at […] in 1% acetic acid was added to each well and the plates were incubated for 10 minutes at room temperature. The plates were washed five times with 1% acetic acid and air-dried. The bound stain was solubilized with 10 mM trizma base and the absorbance was read on a plate reader at […].

IMR90 = experiment: Calcein AM viability assay, IMR90; assay type: cell-based; conditions: IMR-90, normal human fibroblast, 72-hours incubation
Experimental: The potency of Cdk inhibitors, as measured by loss of cellular viability, was determined with the Calcein AM assay (Molecular Probes). Calcein AM is a substrate of intracellular esterases, which is cleaved only in viable cells to generate a fluorescent product that can be quantified with a fluorescent plate reader. The fluorescent signal is proportional to the number of viable cells, and thus loss of signal in response to the exposure of cells to Cdk inhibitors correlates with a loss of viability. This assay distinguishes cell cycle arrest from loss of viability and is thus well suited for the evaluation of Cdk inhibitors.
Cellular IC50's were determined in the human colorectal carcinoma cell line, HCT-116, and the normal human fibroblast, IMR90. Protein adjusted IC50's were also determined in HCT-116. Results are presented in Table 3 below (HCT-116 (viability/protein adjusted) and IMR-90).
HCT-116 or IMR90 cells were recovered from sub-confluent plates by trypsinization and 1,000 or 4,000 cells, respectively, were plated in 24-well dishes and incubated overnight at 37° C., 5% CO2. HCT-116 cells were cultured in RPMI-1640, 10% FCS, and IMR90 cells were cultured in Minimum Essential Medium-alpha, 10% FCS. After overnight incubation to allow.adlierence, the media was aspirated from each well and replaced with media containing a test compound at a concentration from 0 to 250 nM, spanning a total of 7 doses. The plates were returned to the incubator and cultured for an additional 3 days. […] After 72-hours incubation with the test compound, the cells were washed twice with 1×PBS, talking special care to remove all residual buffer.
A 5 μM Calcein AM. solution was prepared by dissolving a 50 μg aliquot of Calcein (Molecular Probes catalog # C3100) in 50 μl DMSO. After the Calcein had completely dissolved (10 minutes at room temperature), it was diluted into 10 ml PBS. Calcein/PBS (0.5 ml) was added to each well. The plates were incubated for 75 minutes at 37° C. (protected from light) and the fluorescent signal was read on a fluorescent plate reader (excitation 485/20 and emission 530/25).

arrested IMR90 cells = experiment: Arrested cell assay (serum starvation), IMR90; assay type: cell-based, human; design: unit not given here; conditions: serum-starved arrested cells; unit not given
Experimental: Cyclin-dependent kinase (Cdk) activity is required to promote the progression of cells through distinct phases of the cell division cycle. The proliferation of normal, non-transformed, cells in culture requires the presence of growth factors, the removal of which, through serum deprivation, leads to a loss of Cdlc activity and consequent exit from the cell cycle as cells enter the quiescent phase, Go.
IMR90 cells were plated in triplicate for each compound concentration to be tested in MEM-α media containing 10% fetal calf serum at a density of either 2,000 or 20,000 cells per well in 24-well dishes and incubated overnight at 37° C., 5% CO2. The media was removed from the 20,000 cell-per-well dish, cells were washed once with serum-free media, and serum-fiee media was placed on cells. The plates containing cells both in the presence and absence of serum were incubated for 3 additional days.
To ensure that the cells had indeed exited the cell cyde upon serum withdrawal, the percentage of BrdU positive cells, indicative of those progressing through S phase, was determined in each experiment. For the purpose of this experiment, cellular viability was evaluated simultaneously with the use of SNARF-1, a fluorescent substrate of intracellular esterases which are only active in viable cells. Together, the evaluation of BrdU incorporation and SNARF-1 cleavage by flow cytometry provided an assessment of the viability of arrested cells on a single cell basis. For this analysis, the cells were stained with SNARF-1 as follows and then prepared for determination of BrdU incorporation as described above.
HCT-116 and IMR90 cells were plated at the density described below in T25 flasks in serum-containing media (RPMI-1640 or MEM-a with 10% FCS, respectively). After 24 hours of growth, the media was removed and, after washing the cells, replaced with serum-free media. • HCT-116+FCS 5,000 cells • HCT-116−FCS 100,000 cells • IMR90+FCS 100,000 cells • IMR90−FCS 200,000 cells
The IMR90 cells were grown for an additional 3 days and the HCT-116 cells were grown for an additional 6 days before pulsing with BrdU. A 50 μg aliquot of SNARF-1 (Molecular Probes catalog #C1272) was dissolved in 50 μl DMSO at room temperature for 10 minutes and then diluted into 10 ml PBS. The SNARF-1 was further diluted 1:64,000 before 200 μl was added to each tube of cells which had been cultured in the presence or absence of serum and pulsed with BrdU for 20 hours. The cells were incubated at 37° C. for 30 minutes and then washed with 3 ml of PBS.
These cells were then fixed and prepared for the measurement of BrdU incorporation as described above. The percentage of viable (FL-2) and BrdU positive (FL-1) cells was determined on a FACScan flow cytometer.

SMILES	NCI panel MG-MID [1]	IC50 (IMR90)	Arrested cell IMR90 (arrested IMR90 cells)
CC(C)c1nn(-c2c(Cl)cccc2Cl)c2nc(Cc3ccc(O)c(CN4CCN(C(C)C)CC4)c3)[nH]c(=O)c12.Cl.Cl [Compound C]	<0.1 µM	< 100 nM	>1.0
Cl.Cl.Cl.O=C(Nc1cccc2c1C(=O)c1c-2n[nH]c1-c1ccc(OCCN2CCCC2)cc1)NN1CCOCC1 [Compound I]	<0.1 µM	< 100 nM	>1.0
CC(C)N1CCN(CCOc2ccc(-c3[nH]nc4c3C(=O)c3c(NC(=O)NN5CCOCC5)cccc3-4)cc2)CC1.Cl.Cl.Cl [E]	<0.1 µM	< 100 nM	>0.1
CN1CCN(NC(=O)Nc2cccc3c2C(=O)c2c-3n[nH]c2-c2ccc(OCCN3CCCC3)cc2)CC1.Cl.Cl.Cl [F]	<0.1 µM	< 100 nM	>1.0
CCCN(CCOc1ccc(-c2[nH]nc3c2C(=O)c2c(NC(=O)NN4CCOCC4)cccc2-3)cc1)CC1CC1.Cl.Cl.Cl [G]	<0.1 µM	< 100 nM	>0.1
Cl.Cl.Cl.O=C(Nc1cccc2c1C(=O)c1c-2n[nH]c1-c1ccc(OCCN(CCO)CCO)cc1)NN1CCOCC1 [H]	<0.1 µM	< 100 nM	>1.0
CC(C)N1CCN(Cc2cc(-c3[nH]nc4c3C(=O)c3c(NC(=O)NN5CCOCC5)cccc3-4)ccc2O)CC1.Cl.Cl.Cl.Cl [K]	<0.1 µM	> 100 nM	>1.0
CN1CCN(NC(=O)Nc2cccc3c2C(=O)c2c-3n[nH]c2-c2ccc(OCCN3CCOCC3)cc2)CC1.Cl.Cl [Q]	<0.1 µM	< 100 nM	>0.1
